Measured values as given in US11117892B2, “Pyrrolo-pyridine derivative compound, method for preparing same, and pharmaceutical composition containing same as active ingredient for prevention or treatment of protein kinase-related diseases” (DAEGU-GYEONGBUK MEDICAL INNOVATION FOUNDATION, priority 2017, dated 2021).
Where two headings read alike, the source gives them in different places.

What was measured:
Test in all cases: scanMAX Kinase assay panel
Format in all cases: binding
Conditions in all cases: read-out: % control
CDKL2 = CDKL2 (Homo sapiens (Human), UniProt Q92772)
Chain of CDKL2 (Q92772 whole entry): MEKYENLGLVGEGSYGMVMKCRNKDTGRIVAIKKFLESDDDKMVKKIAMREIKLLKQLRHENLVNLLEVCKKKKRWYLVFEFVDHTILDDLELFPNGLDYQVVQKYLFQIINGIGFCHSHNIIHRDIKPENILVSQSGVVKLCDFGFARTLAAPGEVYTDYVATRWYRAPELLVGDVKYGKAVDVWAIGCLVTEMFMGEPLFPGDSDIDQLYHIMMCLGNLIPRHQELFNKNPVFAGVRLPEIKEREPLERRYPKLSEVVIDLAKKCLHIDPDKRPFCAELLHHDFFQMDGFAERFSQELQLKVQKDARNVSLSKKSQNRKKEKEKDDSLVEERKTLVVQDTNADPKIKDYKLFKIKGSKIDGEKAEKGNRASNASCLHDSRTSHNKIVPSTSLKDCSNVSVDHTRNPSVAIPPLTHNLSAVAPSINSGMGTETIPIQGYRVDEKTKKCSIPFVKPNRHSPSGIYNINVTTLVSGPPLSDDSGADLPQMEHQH
How it was run: (§1)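 % control read-out: DMSO vehicle = 100%, positive control = 0%, test compound scaled between these two. Selectivity profiling was done on the scanMAX kinase panel.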

IRAK4 = IRAK4 (Homo sapiens (Human), UniProt Q9NWZ3)
Chain of IRAK4 (Q9NWZ3 whole entry): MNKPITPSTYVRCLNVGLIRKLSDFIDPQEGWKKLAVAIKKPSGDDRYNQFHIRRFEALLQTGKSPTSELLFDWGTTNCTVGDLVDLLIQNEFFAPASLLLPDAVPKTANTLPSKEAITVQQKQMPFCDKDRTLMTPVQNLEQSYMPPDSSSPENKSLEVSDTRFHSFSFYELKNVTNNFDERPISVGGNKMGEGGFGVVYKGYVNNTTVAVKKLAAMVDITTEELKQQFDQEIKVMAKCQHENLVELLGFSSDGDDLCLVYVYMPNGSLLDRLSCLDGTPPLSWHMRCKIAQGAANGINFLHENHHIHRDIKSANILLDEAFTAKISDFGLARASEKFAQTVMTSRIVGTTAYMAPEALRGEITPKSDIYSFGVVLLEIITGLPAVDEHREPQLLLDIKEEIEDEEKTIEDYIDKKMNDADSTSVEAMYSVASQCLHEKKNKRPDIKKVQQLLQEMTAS
How it was run: as §1

ACVR1 = ACVR1 (Homo sapiens (Human), UniProt Q04771)
How it was run: as §1

MST2 = MST2 (Homo sapiens (Human), UniProt Q13188)
Chain of MST2 (Q13188 whole entry): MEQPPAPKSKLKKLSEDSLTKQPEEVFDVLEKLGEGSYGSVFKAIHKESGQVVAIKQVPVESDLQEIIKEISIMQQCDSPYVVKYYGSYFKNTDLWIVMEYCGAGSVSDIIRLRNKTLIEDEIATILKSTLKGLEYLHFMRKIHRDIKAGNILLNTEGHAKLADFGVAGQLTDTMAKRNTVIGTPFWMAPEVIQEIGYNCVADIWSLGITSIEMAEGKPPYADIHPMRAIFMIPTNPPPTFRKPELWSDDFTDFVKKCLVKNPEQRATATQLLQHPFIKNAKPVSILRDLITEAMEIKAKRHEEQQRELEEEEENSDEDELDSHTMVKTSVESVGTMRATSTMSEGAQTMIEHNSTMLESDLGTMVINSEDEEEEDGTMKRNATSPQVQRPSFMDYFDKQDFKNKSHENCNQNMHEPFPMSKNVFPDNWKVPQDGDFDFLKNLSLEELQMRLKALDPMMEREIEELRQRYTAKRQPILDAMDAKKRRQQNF
How it was run: as §1

MAP4K4 = MAP4K4 (Homo sapiens (Human), UniProt O95819)
How it was run: as §1

MST1R = MST1R (Homo sapiens (Human), UniProt Q04912)
How it was run: as §1

TNK2 = TNK2 (Homo sapiens (Human), UniProt Q07912)
How it was run: as §1

LIMK1 = LIMK1 (Homo sapiens (Human), UniProt P53667)
Chain of LIMK1 (P53667 whole entry): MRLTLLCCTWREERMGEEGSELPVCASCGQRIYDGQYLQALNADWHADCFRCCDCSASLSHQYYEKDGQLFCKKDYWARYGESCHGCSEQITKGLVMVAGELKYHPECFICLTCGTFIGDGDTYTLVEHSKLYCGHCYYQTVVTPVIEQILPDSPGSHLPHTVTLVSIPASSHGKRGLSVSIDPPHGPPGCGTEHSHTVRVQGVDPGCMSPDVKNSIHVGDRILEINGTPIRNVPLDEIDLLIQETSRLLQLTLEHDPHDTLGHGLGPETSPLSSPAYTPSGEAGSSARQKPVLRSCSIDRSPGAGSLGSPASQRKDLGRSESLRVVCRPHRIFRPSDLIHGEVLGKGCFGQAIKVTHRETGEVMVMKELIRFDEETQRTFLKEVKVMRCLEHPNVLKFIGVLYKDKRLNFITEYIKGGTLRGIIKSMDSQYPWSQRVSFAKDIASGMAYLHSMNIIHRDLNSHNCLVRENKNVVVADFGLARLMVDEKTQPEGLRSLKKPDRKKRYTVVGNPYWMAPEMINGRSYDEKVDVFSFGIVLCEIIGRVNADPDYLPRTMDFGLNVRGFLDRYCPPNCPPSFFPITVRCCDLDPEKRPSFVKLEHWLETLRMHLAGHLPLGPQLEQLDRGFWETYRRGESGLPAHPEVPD
How it was run: as §1

GRK4 = GRK4 (Homo sapiens (Human), UniProt P32298)
Chain of GRK4 (P32298 whole entry): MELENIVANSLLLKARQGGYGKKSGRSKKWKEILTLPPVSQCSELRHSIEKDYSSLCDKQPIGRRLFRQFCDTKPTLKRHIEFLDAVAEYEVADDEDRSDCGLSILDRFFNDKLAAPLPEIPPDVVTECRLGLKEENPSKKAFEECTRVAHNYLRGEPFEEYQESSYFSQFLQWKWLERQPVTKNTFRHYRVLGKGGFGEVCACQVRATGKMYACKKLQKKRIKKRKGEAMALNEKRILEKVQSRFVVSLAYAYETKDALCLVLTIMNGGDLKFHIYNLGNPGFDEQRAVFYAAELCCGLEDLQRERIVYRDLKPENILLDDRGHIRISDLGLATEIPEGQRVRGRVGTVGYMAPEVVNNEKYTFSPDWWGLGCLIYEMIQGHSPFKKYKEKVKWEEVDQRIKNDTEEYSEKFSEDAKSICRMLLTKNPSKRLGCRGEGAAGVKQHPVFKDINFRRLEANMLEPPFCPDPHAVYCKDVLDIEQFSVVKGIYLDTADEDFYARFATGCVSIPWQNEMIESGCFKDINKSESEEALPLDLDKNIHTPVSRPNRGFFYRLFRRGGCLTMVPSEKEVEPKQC
How it was run: as §1

YSK1 = YSK1 (Homo sapiens (Human), UniProt O00506)
How it was run: as §1

[1] = biological target: ABL1(Y253F)-phosphorylated (Homo sapiens (Human), UniProt P00519, Y253F)
How it was run: as §1

ACVR1B = ACVR1B (Homo sapiens (Human), UniProt P36896)
How it was run: as §1

PIP5K1C = PIP5K1C (Homo sapiens (Human), UniProt O60331)
How it was run: as §1

CTK = CTK (Homo sapiens (Human), UniProt P42679)
Chain of CTK (P42679 whole entry): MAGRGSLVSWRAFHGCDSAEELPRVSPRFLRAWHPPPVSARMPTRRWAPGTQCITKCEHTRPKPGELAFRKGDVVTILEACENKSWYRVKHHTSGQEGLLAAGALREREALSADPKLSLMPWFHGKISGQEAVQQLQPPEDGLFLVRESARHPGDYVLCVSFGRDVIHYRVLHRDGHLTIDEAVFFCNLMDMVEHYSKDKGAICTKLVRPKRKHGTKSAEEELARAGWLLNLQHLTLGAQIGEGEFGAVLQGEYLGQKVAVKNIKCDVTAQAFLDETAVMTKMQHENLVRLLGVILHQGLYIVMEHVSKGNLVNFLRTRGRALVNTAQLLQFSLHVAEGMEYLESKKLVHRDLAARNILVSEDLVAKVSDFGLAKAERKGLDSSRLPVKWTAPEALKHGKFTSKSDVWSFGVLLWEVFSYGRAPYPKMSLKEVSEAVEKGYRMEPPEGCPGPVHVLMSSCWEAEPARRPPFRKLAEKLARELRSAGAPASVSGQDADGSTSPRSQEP
How it was run: as §1

EPHA3 = EPHA3 (Homo sapiens (Human), UniProt P29320)
How it was run: as §1

BRAF(V600E) = BRAF(V600E) (Homo sapiens (Human), UniProt P15056, V600E)
How it was run: as §1

MST1 = MST1 (Homo sapiens (Human), UniProt Q13043)
Chain of MST1 (Q13043 whole entry): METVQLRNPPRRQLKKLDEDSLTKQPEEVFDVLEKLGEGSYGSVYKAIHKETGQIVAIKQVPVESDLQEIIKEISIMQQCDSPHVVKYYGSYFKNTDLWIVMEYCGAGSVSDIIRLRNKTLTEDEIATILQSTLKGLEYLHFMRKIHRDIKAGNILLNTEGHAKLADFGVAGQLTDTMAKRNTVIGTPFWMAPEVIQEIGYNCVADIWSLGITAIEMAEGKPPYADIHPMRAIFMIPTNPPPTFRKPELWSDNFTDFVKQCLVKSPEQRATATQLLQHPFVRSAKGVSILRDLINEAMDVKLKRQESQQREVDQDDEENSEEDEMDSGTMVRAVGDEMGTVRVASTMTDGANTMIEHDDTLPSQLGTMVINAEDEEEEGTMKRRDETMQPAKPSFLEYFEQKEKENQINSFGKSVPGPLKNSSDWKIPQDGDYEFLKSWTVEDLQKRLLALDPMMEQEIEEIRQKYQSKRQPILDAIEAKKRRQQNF
How it was run: as §1

RIPK5 = RIPK5 (Homo sapiens (Human), UniProt Q6XUX3)
How it was run: as §1

PAK6 = PAK6 (Homo sapiens (Human), UniProt Q9NQU5)
How it was run: as §1

PIK3CA = PIK3CA (Homo sapiens (Human), UniProt P42336)
How it was run: as §1

MEK2 = MEK2 (Homo sapiens (Human), UniProt P36507)
How it was run: as §1

EGFR(G719C) = EGFR(G719C) (Homo sapiens (Human), UniProt P00533, G719C)
How it was run: as §1

DAPK1 = DAPK1 (Homo sapiens (Human), UniProt P53355)
How it was run: as §1

FGR = FGR (Homo sapiens (Human), UniProt P09769)
How it was run: as §1

ULK1 = ULK1 (Homo sapiens (Human), UniProt O75385)
How it was run: as §1

CAMK2G = CAMK2G (Homo sapiens (Human), UniProt Q13555)
How it was run: as §1

CSNK1D = CSNK1D (Homo sapiens (Human), UniProt P48730)
How it was run: as §1

CAMK1 = CAMK1 (Homo sapiens (Human), UniProt Q14012)
How it was run: as §1

PRKCQ = PRKCQ (Homo sapiens (Human), UniProt Q04759)
Chain of PRKCQ (Q04759 whole entry): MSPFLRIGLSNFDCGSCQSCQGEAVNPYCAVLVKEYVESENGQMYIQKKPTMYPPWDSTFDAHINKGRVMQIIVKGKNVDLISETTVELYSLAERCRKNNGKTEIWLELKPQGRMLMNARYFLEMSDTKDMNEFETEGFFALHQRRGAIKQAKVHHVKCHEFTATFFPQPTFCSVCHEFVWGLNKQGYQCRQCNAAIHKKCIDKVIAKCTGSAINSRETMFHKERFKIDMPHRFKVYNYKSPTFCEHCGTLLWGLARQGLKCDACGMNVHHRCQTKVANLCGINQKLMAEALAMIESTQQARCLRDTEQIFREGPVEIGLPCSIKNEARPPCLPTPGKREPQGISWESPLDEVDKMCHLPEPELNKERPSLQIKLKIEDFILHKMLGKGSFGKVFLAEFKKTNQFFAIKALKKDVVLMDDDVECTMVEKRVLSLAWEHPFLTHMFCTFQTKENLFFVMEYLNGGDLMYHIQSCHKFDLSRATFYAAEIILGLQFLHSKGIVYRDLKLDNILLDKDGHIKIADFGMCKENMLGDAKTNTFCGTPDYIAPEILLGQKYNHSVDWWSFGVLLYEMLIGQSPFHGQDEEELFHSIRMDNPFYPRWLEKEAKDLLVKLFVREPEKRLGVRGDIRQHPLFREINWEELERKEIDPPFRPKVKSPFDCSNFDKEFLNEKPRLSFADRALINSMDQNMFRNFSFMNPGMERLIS
How it was run: as §1

PKN2 = PKN2 (Homo sapiens (Human), UniProt Q16513)
How it was run: as §1

PCTK2 = PCTK2 (Homo sapiens (Human), UniProt Q00537)
How it was run: as §1

BLK = BLK (Homo sapiens (Human), UniProt P51451)
How it was run: as §1

CSNK1G1 = CSNK1G1 (Homo sapiens (Human), UniProt Q9HCP0)
How it was run: as §1

PRKX = PRKX (Homo sapiens (Human), UniProt P51817)
How it was run: as §1

[2] = biological target: ABL1(F317I)-phosphorylated (Homo sapiens (Human), UniProt P00519, F317I)
How it was run: as §1

NDR1 = NDR1 (Homo sapiens (Human), UniProt Q15208)
Chain of NDR1 (Q15208 whole entry): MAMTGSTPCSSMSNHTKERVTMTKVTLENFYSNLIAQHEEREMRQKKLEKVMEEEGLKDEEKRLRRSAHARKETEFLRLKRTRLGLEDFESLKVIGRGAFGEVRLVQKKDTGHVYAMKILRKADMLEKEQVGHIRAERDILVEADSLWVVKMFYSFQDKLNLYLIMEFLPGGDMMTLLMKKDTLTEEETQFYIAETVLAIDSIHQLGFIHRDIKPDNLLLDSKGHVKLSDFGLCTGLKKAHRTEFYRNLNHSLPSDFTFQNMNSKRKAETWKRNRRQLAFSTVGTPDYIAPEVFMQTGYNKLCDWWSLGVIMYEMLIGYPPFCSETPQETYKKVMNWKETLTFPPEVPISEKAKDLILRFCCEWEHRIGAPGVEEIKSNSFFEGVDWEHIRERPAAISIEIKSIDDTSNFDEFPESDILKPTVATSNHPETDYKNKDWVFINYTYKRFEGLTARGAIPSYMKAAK
How it was run: as §1

PIK3CA(E542K) = PIK3CA(E542K) (Homo sapiens (Human), UniProt P42336, E542K)
How it was run: as §1

Row | SMILES | remaining binding at 1 µM (CDKL2) | remaining binding at 1 µM (IRAK4) | remaining binding at 1 µM (ACVR1) | remaining binding at 1 µM (MST2) | remaining binding at 1 µM (MAP4K4) | remaining binding at 1 µM (MST1R) | remaining binding at 1 µM (TNK2) | remaining binding at 1 µM (LIMK1) | remaining binding at 1 µM (GRK4) | remaining binding at 1 µM (YSK1) | remaining binding at 1 µM [1] | remaining binding at 1 µM (ACVR1B) | remaining binding at 1 µM (PIP5K1C) | remaining binding at 1 µM (CTK) | remaining binding at 1 µM (EPHA3) | remaining binding at 1 µM (BRAF(V600E)) | remaining binding at 1 µM (MST1) | remaining binding at 1 µM (RIPK5) | remaining binding at 1 µM (PAK6) | remaining binding at 1 µM (PIK3CA) | other results
1 | CCNc1cc(Nc2ccc(C(=O)N3CCC(N4CCOCC4)CC3)cc2OC)nc2[nH]cc(C#N)c12 [Example 18, 4-(ethylamino)-6-((2-methoxy-4-(4-morpholinopiperidine-1-carbonyl)phenyl)amino)-1H-pyrrolo[2,3-b]pyridine-3-carbonitrile] | 100% | 99% | 92% | 95% | 100% | 81% | 92% | 92% | 100% | 99% | 89% | 88% | 67% | 100% | 93% | 87% | 99% | 18% | 98% | 100% | remaining binding at 1 µM (MEK2): 26%; remaining binding at 1 µM (EGFR(G719C)): 95%; remaining binding at 1 µM (DAPK1): 16%; remaining binding at 1 µM (FGR): 100%; remaining binding at 1 µM (ULK1): 78%; remaining binding at 1 µM (CAMK2G): 77%; percent of control binding at 1 µM (CSNK1D; CSNK1D, 1 uM): 5.3%; remaining binding at 1 µM (CAMK1): 62%; remaining binding at 1 µM (PRKCQ): 94%; remaining binding at 1 µM (PKN2): 92%; remaining binding at 1 µM (PCTK2): 100%; remaining binding at 1 µM (BLK): 99%; remaining binding at 1 µM (CSNK1G1): 43%; remaining binding at 1 µM (PRKX): 92%; remaining binding at 1 µM [2]: 80%; remaining binding at 1 µM (NDR1): 69%; remaining binding at 1 µM (PIK3CA(E542K)): 96%
2 | CCNc1cc(Nc2ccc(C(=O)N3CCC(N4CCOCC4)CC3)cc2OC)nc2[nH]cc(C(F)(F)F)c12 [Example 57, (4-((4-(ethylamino)-3-(trifluoromethyl)-1H-pyrrolo[2,3-b]pyridin-6-yl)amino)-3-methoxyphenyl) (4-morpholinopiperidin-1-yl)methanone] | 90% | 100% | 88% | 100% | 100% | 70% | 86% | 99% | 100% | 73% | 100% | 82% | 69% | 84% | 100% | 94% | 76% | 79% | 78% | 87% | remaining binding at 1 µM (MEK2): 100%; remaining binding at 1 µM (EGFR(G719C)): 91%; remaining binding at 1 µM (DAPK1): 70%; remaining binding at 1 µM (FGR): 78%; remaining binding at 1 µM (ULK1): 94%; remaining binding at 1 µM (CAMK2G): 72%; percent of control binding at 1 µM (CSNK1D): 30%; remaining binding at 1 µM (CAMK1): 78%; remaining binding at 1 µM (PRKCQ): 96%; remaining binding at 1 µM (PKN2): 92%; remaining binding at 1 µM (PCTK2): 98%; remaining binding at 1 µM (BLK): 73%; remaining binding at 1 µM (CSNK1G1): 88%; remaining binding at 1 µM (PRKX): 80%; remaining binding at 1 µM [2]: 100%; remaining binding at 1 µM (NDR1): 89%; remaining binding at 1 µM (PIK3CA(E542K)): 100%
